Legend:
pancreatic acinar cells [1] = test: Correlation between EGF concentration and induction of colonies containing insulin-positive cells; format: cell-based, mouse; conditions: 0.5% fetal bovine serum (FIG. 9)
Description: The recovered cells were suspended in a nutrition medium (e.g., RPMI-1640) containing 0.5% fetal bovine serum (Sigma) and 20 ng/ml epidermal growth factor (EGF) (R&D Systems: Minneapolis, Minn., USA), and inoculated in cell culture dishes which were less adhesive for cells (Nalge Nunc: Rochester, N.Y., USA) and cultured in an incubator set at 37° C., 5% CO2. The pancreatic acinar cells, at early stages of culture, formed cell clusters having smooth boundaries consisting of congregated cells and, and kept themselves floating (FIG. 1A), and, at around day 3, adhere to the bottom of the dish and started to extend on it. After about 7 days, they formed relatively small cell aggregates (colonies) consisting of several dozen to several hundred cells (FIG. 1B). The cell density upon inoculation, which ranged from 1- to 10-fold dilution of that in pre-culture, had no influence on the form of the colonies observed.
In accordance with the method described in Example 1, except that the concentration of fetal bovine serum was fixed at 0.5% and EGF was used as the growth factor at a concentration of 0, 2, 20 or 200 ng/ml, main culture of pancreatic acinar cells were performed to assess the effect of EGF on induction of aimed cells (cells forming colonies containing insulin-positive cells as shown in FIG. 1B).

pancreatic acinar cells [2] = test: Effect of growth factors on insulin-positive cell induction in main culture of pancreatic acinar cells; format: cell-based, mouse; conditions: day 7 of culture, EGF 20 ng/ml, HGF, FGF7 and FGF10 10 ng/ml, GLP-1 30 ng/ml; for proportion of insulin-positive cells: rank among growth factors (FIG. 8B)
Description: Eight-week old male mice (C57B1/6Cr Slc)(Japan SLC, Inc.: Hamamatsu, Japan) were anesthetized with 50 mg/kg of Nembtal (Dainippon Pharma Co., Ltd.: Osaka, Japan) and subjected to laparotomy. The choledoch duct was ligated near the position where it opens to the duodenum. Using a 27G winged needle (Terumo Corporation: Tokyo, Japan), 2-3 ml of Hank's buffer containing 0.05% collagenase P (Roche: Basel, Switzerland) and 10% fetal bovine serum was infused from the liver side. The pancreas, now swollen, was extracted and digested in 5 ml of Hank's buffer per pancreas for 18 minutes at 37° C. The digested pancreas then was made to pass through a 14G indwelling needle in both directions twice to disperse the pancreatic cells, which washed well with Hank's buffer containing 0.1% bovine serum albumin (Sigma: Saint Louis, Mo., USA). The pancreatic cells thus obtained were suspended in a mixed solution (solution A) consisting of 8.3% Ficoll 400 (Amersham Bioscience: Uppsala, Sweden) and 16.7% Conray 400 (Daiichi Pharmaceutical, Tokyo, Japan), and after a 87.5%-diluted solution of solution A and then a 50%-diluted solution of solution A were placed on it in the order, centrifuged (2,000 rpm, 10 min). Pancreatic acinar cells condensed in the spun down, lowest fraction were collected, and to them was added a sterilized 0.1 mg/ml solution of dithizone (1,5-diphenylthiocarbazone) (Nacalai Tesque, Inc.: Kyoto, Japan) and stained for 15 minutes at 37° C. in order to remove contaminating mature B-cells. Mature B-cells are stained red with dithizone, which is a chelating agent for zinc, for high concentration of insulin occurs in mature B-cells in the form of a hexamer via zinc (Latif et al., Transplantation, 45:827(1988)). By removing red-stained mature B-cells under a stereomicroscope, a fraction containing highly concentrated pancreatic acinar cells were obtained. […]

Row | Substance | effect on induction of aimed cells (cells forming colonies containing insulin-positive cells) (pancreatic acinar cells [1]; EGF 20 ng/ml) | effect on induction of aimed cells (cells forming colonies containing insulin-positive cells) (pancreatic acinar cells [1]; EGF 200 ng/ml) | total cell count (growth of the cells) (pancreatic acinar cells [2]; rank among growth factors (FIG. 8A)) | proportion of insulin-positive cells (pancreatic acinar cells [2])
1 | epidermal growth factor [EGF, epidermal growth factor (R&D Systems), growth factor added to the culture medium] | remarkable effect | remarkable effect | most effective | most effective
2 | hepatocyte growth factor [HGF] |  |  |  | this was followed by FGF10 and HGF

Source: patent US20070231897A1, “Induction of Insulin Secreting Cell” (KYOTO UNIVERSITY, priority 2004, published 2007)
